In brackets after ≈: the same amount, converted by molar mass. Blank lines part the entries; values can stand above or below the compound they belong to.
Columns and labels:
[1] = Polymorphic relationship of the mono-methane sulfonate forms (relative stability); type: physicochemical; details: anhydrous monotropic polymorphs of the mono-methane sulfonate; between 20° C. and 206° C.
Excerpt: Form I and Form II are anhydrous monotropic polymorphs. […] Form II, the higher melting form, can be formed directly from crystallization as described above, while Form I can be synthesized using ethyl acetate followed by drying. However, the crystal packing of the ethyl acetate solvate and Form I are distinct from each other confirming that Form I is an actual anhydrous form.

HIV-1 (RF) = test: HIV RNA assay, microplate based compound evaluation in HIV-1 infected MT-2 cells; type: cell-based; details: Human immunodeficiency virus 1, MT2, 72 h; HIV-1 (RF) infected MT-2 cells, 3 days of culture; virus dilutions selected to give this value (inoculum standardisation); read-out: IC90 value (concentration of compound required to reduce the HIV RNA level by 90%)
Protocol: DNA Plasmids and in vitro RNA Transcripts:
Plasmid pDAB 72 containing both gag and pol sequences of BH10 (bp 113-1816) cloned into PTZ 19R was prepared according to Erickson-Viitanen et al. AIDS Research and Human Retroviruses 1989, 5, 577. The plasmid was linearized with Bam HI prior to the generation of in vitro RNA transcripts using the Riboprobe Gemini system II kit (Promega) with T7 RNA polymerase. Synthesized RNA was purified by treatment with RNase free DNAse (Promega), phenol-chloroform extraction, and ethanol precipitation. RNA transcripts were dissolved in water, and stored at −70° C. The concentration of RNA was determined from the A260.
Biotinylated capture probes were purified by HPLC after synthesis on an Applied Biosystems (Foster City, Calif.) DNA synthesizer by addition of biotin to the 5′ terminal end of the oligonucleotide, using the biotin-phosphoramidite reagent of Cocuzza, Tet. Lett. 1989, 30, 6287. […]
MT-2 and MT-4 cells were maintained in RPMI 1640 supplemented with 5% fetal calf serum (FCS) for MT-2 cells or 10% FCS for MT-4 cells, 2 mM L-glutamine and 50 μg/mL gentamycin, all from Gibco. […] Infectious titers of HIV-1(RF) stocks were 1-3×10^7 PFU (plaque forming units)/mL as measured by plaque assay on MT-2 cells (see below). […]

HIV protease = HIV protease (Human immunodeficiency virus type 1 group M subtype B, UniProt P04585); test: HIV protease inhibition (stated as tested, no method given); type: biochemical

Compound: CC(C)CN(C[C@@H](O)[C@H](Cc1ccccc1)NC(=O)[C@@H](NC(=O)CNCc1cccc(F)c1)C(C)(C)C)S(=O)(=O)c1cccc(N)c1 [Form II]
Relative stability of polymorphs [1]: more stable than Form I

IC90 (HIV-1 (RF)): 0.2 µg/mL (≈ 0.947 µM)
Compound: Nc1ccn([C@H]2CC[C@@H](CO)O2)c(=O)n1 [ddC, dideoxycytidine]

Compound: CC(C)CN(C[C@@H](O)[C@H](Cc1ccccc1)NC(=O)[C@@H](NC(=O)CNCc1cccc(F)c1)C(C)(C)C)S(=O)(=O)c1cccc(N)c1 [Compound A]
HIV protease inhibitor activity (HIV protease): potent HIV protease inhibitor

From patent US20020022659A1, “Crystalline and salt forms of an HIV protease inhibitor” (priority 2000, published 2002)
